# From the supplement of paper PMC11616607
# Tests used:
# Test in all cases: drug sensitivity score (DSS) from 5-point dose-response viability curve (DSS (area-under-curve based score)); higher = more sensitive (stronger growth inhibition or killing); extreme values may be limits of the assay
# Settings in all cases: exposure time: 72 h; concentration range: 5 concentrations over 10,000-fold range
# HOSE1C = tested on: HOSE1C
# In short: (§1)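 Ovarian cancer and normal ovarian cell lines were tested in 384-well plates. Drugs were acoustically dispensed (Echo 550) in DMSO or water at five concentrations spanning a 10,000-fold range, then 1,500 cells per well were added and incubated 3 days at 37°C, 5% CO2. Viability was read by CellTiter-Glo luminescence on a PHERAstar FS. Drug sensitivity score was derived per cell line and drug with Breeze software; higher means more sensitive, zero means no response.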
# Ovsaho = tested on: Ovsaho
# In short: as §1
# Kuramochi = tested on: Kuramochi
# In short: as §1
# OV90 = tested on: OV90
# In short: as §1
# COV318 = tested on: COV318
# In short: as §1
# CAOV3 = tested on: CAOV3
# In short: as §1
# COV362 = tested on: COV362
# In short: as §1
# HOSE2C = tested on: HOSE2C
# In short: as §1
# OVCAR5 = tested on: OVCAR5
# In short: as §1
# OVCAR8 = tested on: OVCAR8
# In short: as §1
# OVCAR4 = tested on: OVCAR4
# In short: as §1
# JHOS2 = tested on: JHOS2
# In short: as §1
Structure (SMILES),drug sensitivity score (HOSE1C),drug sensitivity score (Ovsaho),drug sensitivity score (Kuramochi),drug sensitivity score (OV90),drug sensitivity score (COV318),drug sensitivity score (CAOV3),drug sensitivity score (COV362),drug sensitivity score (HOSE2C),drug sensitivity score (OVCAR5),drug sensitivity score (OVCAR8),drug sensitivity score (OVCAR4),drug sensitivity score (JHOS2)
CNC(=O)c1ccccc1Sc1ccc2c(/C=C/c3ccccn3)n[nH]c2c1 [Axitinib],1.9,0.8,0.4,0.1,0,5,0,6.2,0.8,2,0.2,0
NCC(=O)Nc1ccc(-n2nc(C(F)(F)F)cc2-c2ccc3c(ccc4ccccc43)c2)cc1,21.7,4.9,1.4,0.1,2.8,1,0,8.9,0,2.7,0,1.5
CS(=O)(=O)c1ccc(C(=O)Nc2ccc(Cl)c(-c3ccccn3)c2)c(Cl)c1 [Vismodegib],3.8,0,0.1,0.1,0,0,0,0,0.1,0,0,0
CNC(=O)c1ccccc1Nc1cc(Nc2ccc(N3CCOCC3)cc2OC)ncc1C(F)(F)F [VS-4718],3.6,11.4,11.6,9.2,5.6,6.1,4.1,6,8,4.4,6.8,5.5
COc1cc(Nc2ncc3c(n2)-c2ccc(Cl)cc2C(c2c(F)cccc2OC)=NC3)ccc1C(=O)O [Alisertib],8.9,3.1,3.7,5.4,1.9,22.5,0,5.4,6.9,9.4,4.9,0.4
CCc1c(C(=O)C(N)=O)c2c(OCC(=O)O)cccc2n1Cc1ccccc1 [Varespladib],0,0,0,0,0,0,0,0,0,0,0,0.1
O=C(CCNC(=O)c1ccc(OC(F)(F)F)cc1)N[C@@H]1CCCc2ccccc21 [ML390],19.8,4.1,5.3,5.6,4.1,0.6,0,13.4,2,4.9,0,3.4
O=C(CCCCCCC(=O)Nc1ccc([C@H]2O[C@@H](CSc3nc(-c4ccccc4)c(-c4ccccc4)o3)C[C@@H](c3ccc(CO)cc3)O2)cc1)NO [Tubacin],2.5,2.3,2.6,2.4,2,1.8,0.7,2.6,2.4,5.6,2.7,1.7
